Results published in US20220159969A1, “COMPOSITION AND METHOD FOR ENHANCING SPORE GERMINATION AND BIOLOGICAL EFFICACY” (priority 2019, published 2022).

How the values were obtained:
Type in all cases: in vivo
[1] = system: C. rosea f. catenulata J1446 spores; test: Percent germination of C. rosea f. catenulata J1446 on strawberry leaf discs; conditions: after 24 h on strawberry leaf discs; germinant added to Prestop® 0.025% (glycine betaine 0.06%/0.6%, yeast extract 0.04%/0.2%) vs Prestop® alone; FIG. 1
Protocol: (§1) Young strawberry plants (Fragaria×ananassa; “Merced” variety) were allowed to grow at least a week before plants were selected for experiments by healthy appearance and having large leaves facing upwards. Spore counts for C. rosea f. catenulata J1446 in the package of Prestop WG used were calculated via haemocytometer to be 1.4×10^10 spores/g and viability of the spores was checked using the MPN (most probably number) method and C. rosea f. catenulata J1446 was calculated to be 3×10^9 CFU/g. […] On average, 0.5 ml of treatment was calculated to be applied per plant. […] The number of spores obtained from each slip was counted using a hemocytometer to determine deposition rate. […]
On the same day, after spraying, two 6 mm leaf discs were cut using a sterilized staples hole punch from two different leaves per plant from five sprayed strawberry plants per treatment group per time period (6, 7, 8 and 24 h) and then dyed with 5 ul lactophenol cotton blue. […] Three viewing areas were chosen at random on each leaf disc and 100 spores were counted: the number that germinated (germ tubes visible at twice the length of the spore) out of that 100 was recorded. Average germination percentages were analyzed per treatment group and per time period.
Data for percent germination assays on strawberry leaves was normal when the distribution was analyzed for both greenhouse and environmental chamber studies. […]

[2] = system: C. rosea f. catenulata J1446; test: Hyphal growth of C. rosea f. catenulata J1446 from strawberry leaf discs onto agar plates (greenhouse); conditions: discs cut 1, 2, 3, 6 days after greenhouse incubation, growth on plate 6 days; germinant added to Prestop® 0.025%; FIG. 2
Protocol: as §1
Two 6 mm leaf discs were cut using a sterilized staples hole punch from two different leaves per plant from five sprayed plants per treatment per time period (1, 2, 3, and 6 days after spraying) and placed adaxial side downwards onto paraquat-chloramphenicol agar (PCA) medium (0.1 mL paraquat, 200 mg chloramphenicol, and 12 g agar per liter of water). […] Growth around the leaf disc was measured with a ruler and recorded as average diameter of growth per day. […] Averages in treatments were analyzed.
Data for growth bioassays from 1, 2, 3, and 6 days of greenhouse incubation were all normal when distribution was analysed. […] Multiple comparisons of the mean (alpha=0.05) were analysed using a Tukey post hoc test.

[3] = system: apple scab (Venturia inaequalis); test: Apple scab foliar symptoms on potted Gala apple trees (Example 6)
Protocol: The trial was carried out on potted trees of the Gala variety. Six trees per treatment were reserved for this test.
Two application strategies were tested: (a) one application four days before pathogen inoculation; and (b) a first application four days before pathogen inoculation and a second application after pathogen inoculation when a cumulative of 300° C./hour was reached after the inoculation.
A solution of conidia of V. inaequalis was prepared from 2018 scabbed leaves stored in the freezer. The trees were kept under fog for at least one hour before contamination and then at least 12 hours afterwards. The duration was adapted according to ambient temperature and humidity. The spray volume was defined after a blank test to cover sufficient vegetation without reaching the runoff point (between 30 and 50 mL/tree). The treatments were applied using a hand-held sprayer and carried out four days before inoculation with the pathogen (strategies (a) and (b)) and within 300° C./H after inoculation for strategy (2) only.
The frequency and intensity of foliar symptoms of scab were observed. Observation was carried out four to five days after the start of the first spots, using a 0 to 4 rating scale. Trees were scored individually and were made on all the leaves of each tree.

Botrytis cinerea = test: Greenhouse control of Botrytis cinerea on tomato plants (Example 2); conditions: Prestop® 0.003% combined with glycine betaine 0.05% or 0.2%, 5 days, necrotic area width, FIG. 3
Protocol: Botrytis cinerea was grown on potato dextrose broth for 1 to 2 weeks without shaking. The resulting mycelial and spores were recovered to produce a liquid inoculum.
Tomato plants, variety Admiro (stage: 3-leaf), were sprayed with the B. cinerea inoculum (5000 sp/ml) then allowed to dry. Then, the treatments were applied by spraying the inoculated tomato plants.
The following treatments were tested (9 repetitions): (T1) Prestop® (C. rosea f. catenulatum J1446) 0.003%; (T2) Prestop® (C. rosea f. catenulatum J1446) 0.003%+glycine betaine (Intracell®, Lallemand) 0.05%; (T3) Prestop® (C. rosea f. catenulatum J1446) 0.003%+glycine betaine (Intracell®, Lallemand) 0.2%; (T4) glycine betaine (Intracell®, Lallemand) 0.2% and (T5) water.
Colby's equation was used to determine the effects expected from the components, as described above. The results were measured at 5 days after the application of the components.

`C[N+](C)(C)CC(=O)[O-]` [glycine betaine] was tested, and the “percentage of spore germination of C. rosea J1446” value [1] was “increased”, the “colonization of leaf discs by C. rosea J1446” value [2] was “significantly increased” and the “Frequency of foliar symptoms of scab” value ([3]; one application four days before inoculation + a second application after inoculation when a cumulative of 300° C./hour was reached) was 58.5%. The “Frequency of foliar symptoms of scab” value ([3]; one application four days before inoculation with the pathogen) was 59.6% and the “efficacy of Prestop® to control B. cinerea” value (Botrytis cinerea) was “increased”.
